# Patent publication US11427548B2 (Arvinas Operations, Inc., priority 2015, dated 2022)
# Target: T1, Androgen Receptor (Homo sapiens, UniProt P10275+P40337, T878A)
# T1 construct: Compounds have been evaluated in this assay in LNCaP and/or VCaP cells utilizing similar protocols; endogenous in cells; host or cells: LNCaP cells
# Assay: Androgen Receptor ELISA assay (PathScan AR ELISA) in LNCaP cells: AR degradation, Dmax and DC50
# Assay type: cell-based
# Conditions: for DC50: concentration that caused 50% Androgen Receptor degradation
# [1] = highest percentage of Androgen Receptor degradation observed
# [2] = highest percentage of Androgen Receptor degradation
# T1 sequence (P10275 whole entry T878A): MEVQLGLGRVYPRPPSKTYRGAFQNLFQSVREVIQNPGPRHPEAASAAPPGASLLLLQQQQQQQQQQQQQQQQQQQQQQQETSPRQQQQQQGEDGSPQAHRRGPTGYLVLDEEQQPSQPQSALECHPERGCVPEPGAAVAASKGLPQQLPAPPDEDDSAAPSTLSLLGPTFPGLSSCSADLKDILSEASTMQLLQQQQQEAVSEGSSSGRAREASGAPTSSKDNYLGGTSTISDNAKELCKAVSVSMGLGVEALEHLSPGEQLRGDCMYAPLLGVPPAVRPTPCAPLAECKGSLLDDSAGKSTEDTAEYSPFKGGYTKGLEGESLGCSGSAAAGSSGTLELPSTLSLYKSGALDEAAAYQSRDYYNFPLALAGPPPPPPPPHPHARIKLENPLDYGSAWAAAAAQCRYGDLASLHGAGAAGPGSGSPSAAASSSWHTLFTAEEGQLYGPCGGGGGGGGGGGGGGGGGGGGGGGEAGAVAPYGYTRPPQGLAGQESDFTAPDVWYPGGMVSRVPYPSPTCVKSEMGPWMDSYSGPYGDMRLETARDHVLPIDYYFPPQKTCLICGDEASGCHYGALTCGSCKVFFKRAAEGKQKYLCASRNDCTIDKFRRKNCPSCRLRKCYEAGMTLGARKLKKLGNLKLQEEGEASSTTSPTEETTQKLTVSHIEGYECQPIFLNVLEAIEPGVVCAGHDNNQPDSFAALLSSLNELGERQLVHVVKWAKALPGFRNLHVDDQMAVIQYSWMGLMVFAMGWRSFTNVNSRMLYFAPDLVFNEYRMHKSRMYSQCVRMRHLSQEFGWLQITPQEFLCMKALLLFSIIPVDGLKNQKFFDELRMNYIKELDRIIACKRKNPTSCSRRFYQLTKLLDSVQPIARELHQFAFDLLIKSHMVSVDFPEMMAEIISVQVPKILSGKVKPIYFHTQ
# T1 sequence (P40337 whole entry): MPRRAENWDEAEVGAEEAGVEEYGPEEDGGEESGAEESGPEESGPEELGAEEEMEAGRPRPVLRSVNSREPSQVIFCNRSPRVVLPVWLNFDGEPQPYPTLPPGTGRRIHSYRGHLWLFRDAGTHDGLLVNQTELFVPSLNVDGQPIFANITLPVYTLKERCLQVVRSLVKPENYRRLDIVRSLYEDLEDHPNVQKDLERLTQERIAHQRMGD
# T1 sequence (Q15369 whole entry partner): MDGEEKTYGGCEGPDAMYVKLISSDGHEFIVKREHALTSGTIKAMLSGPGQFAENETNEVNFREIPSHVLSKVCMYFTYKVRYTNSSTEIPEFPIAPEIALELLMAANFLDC
# T1 sequence (Q15370 whole entry partner): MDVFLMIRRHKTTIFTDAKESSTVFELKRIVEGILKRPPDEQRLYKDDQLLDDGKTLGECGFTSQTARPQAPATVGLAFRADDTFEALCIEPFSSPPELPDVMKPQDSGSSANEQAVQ
SMILES,DC50 [nM],Dmax [1] [%],Dmax [2] [%]
"Cc1ncsc1-c1ccc(CNC(=O)[C@@H]2C[C@@H](O)CN2C(=O)[C@@H](NC(=O)OCCOCCOc2ccc(-c3ccc(N4C(=S)N(c5ccc(C#N)c(C(F)(F)F)c5)C(=O)C4(C)C)cc3F)cc2)C(C)(C)C)cc1 [Example 76, 2-{2-[4-(4-{3-[4-cyano-3-(trifluoromethyl)phenyl]-5,5-dimethyl-4-oxo-2-sulfanylideneimidazolidin-1-yl}-2-fluorophenyl)phenoxy]ethoxy}ethyl N-[(2S)-1-[(2S,4R )-4-hydroxy-2-({[4-(4-methy1-1,3-thiazol-5-yl)phenyl]methyl}carbamoyl)pyrrolidin-l-yl]-3,3-dimethyl-1-oxobutan-2-yl]carhamate]",< 50,51 to 70,
Cc1ncsc1-c1ccc(CNC(=O)[C@@H]2C[C@@H](O)CN2C(=O)[C@@H](NC(=O)c2cccc(OCCOCCOc3ccc(N4C(=S)N(c5ccc(C#N)c(C(F)(F)F)c5)C(=O)C4(C)C)cc3)c2)C(C)(C)C)cc1 [Example 283],51 to 500,,51 to 70
Cc1ncsc1-c1ccc(CNC(=O)[C@@H]2C[C@@H](O)CN2C(=O)[C@@H](NC(=O)COCCOCCOCCCCOCCOCCOc2ccc(N3C(=S)N(c4ccc(C#N)c(C(F)(F)F)c4)C(=O)C3(C)C)cc2)C(C)(C)C)cc1 [Example 217],< 50,,51 to 70
CC(=O)N[C@H](C(=O)N1C[C@H](O)C[C@H]1C(=O)NCc1ccc(-c2scnc2C)cc1OCCOCCOCCOc1ccc(N2C(=S)N(c3ccc(C#N)c(C(F)(F)F)c3)C(=O)C2(C)C)cc1)C(C)(C)C [Example 266],51 to 500,,51 to 70
Cc1ncsc1-c1ccc(CNC(=O)[C@@H]2C[C@@H](O)CN2C(=O)[C@H](C(C)C)N2Cc3ccccc3C2=O)c(OCCCOCCOc2ccc(N3C(=S)N(c4ccc(C#N)c(C(F)(F)F)c4)C(=O)C3(C)C)cc2)c1 [Example 241],< 50,,26 to 50
Cc1ncsc1-c1ccc(CNC(=O)[C@@H]2C[C@@H](O)CN2C(=O)[C@@H](NC(=O)CCOCCOc2ccc(N3C(=S)N(c4ccc(C#N)c(C(F)(F)F)c4)C(=O)C3(C)C)cc2)C(C)(C)C)cc1 [Example 233],> 501,,51 to 70
Cc1ncsc1-c1ccc(CNC(=O)[C@@H]2C[C@@H](O)CN2C(=O)[C@H](C(C)C)N2Cc3ccccc3C2=O)c(OCCCOCCCOc2ccc(N3C(=S)N(c4ccc(C#N)c(C(F)(F)F)c4)C(=O)C3(C)C)cc2)c1 [Example 250],51 to 500,,> 71
"Cc1ncsc1-c1ccc(CNC(=O)[C@@H]2C[C@@H](O)CN2C(=O)[C@@H](NC(=O)COCCCCOCCCCOc2ccc(N3C(=S)N(c4ccc(C#N)c(C(F)(F)F)c4)C(=O)C3(C)C)cc2)C(C)(C)C)cc1 [Example 24, (2S,4R)-1-[(2S)-2-(2-{4-[4-(4-{3-[4-cyano-3-(trifluoromethyl)phenyl]-5,5-dimethyl-4-oxo-2-sulfanylideneimidazolidin-1-yl}phenoxy)butoxy]butoxy}acetamido)-3,3-dimethylbutanoyl]-4-hydroxy-N-{[4-(4-methyl-1,3-thiazol-5-yl)phenyl]methyl}pyrrolidine-2-carboxamide]",< 50,> 71,
"Cc1ncsc1-c1ccc(CNC(=O)[C@@H]2C[C@@H](O)CN2C(=O)[C@@H](NC(=O)COCCOCCOCCOc2ccc(N3C(=S)N(c4ccc(C#N)c(C(F)(F)F)c4)C(=O)C3(C)C)cc2F)C(C)(C)C)cc1 [Example 18, (2S,4R)-1-[(2S)-2-[2-(2-{2-[2-(4-{3-[4-cyano-3-(trifluoromethyl)phenyl]-5,5-dimethyl-4-oxo-2-sulfanylideneimidazolidin-1-yl}-2-fluorophenoxy)ethoxy]ethoxy}ethoxy)acetamido]-3,3-dimethylbutanoyl]-4-hydroxy-N-{[4-(4-methyl-1,3-thiazol-5-yl)phenyl]methyl}pyrrolidine-2-carboxamide]",51 to 500,51 to 70,
Cc1ncsc1-c1ccc(CNC(=O)[C@@H]2C[C@@H](O)CN2C(=O)[C@@H](NC(=O)c2ccc(OCCCCOc3ccc(-c4ccc(N5C(=S)N(c6ccc(C#N)c(C(F)(F)F)c6)C(=O)C5(C)C)cc4)cc3)cc2)C(C)(C)C)cc1 [Example 285],> 501,,< 25
Cc1ncsc1-c1ccc(CNC(=O)[C@@H]2C[C@@H](O)CN2C(=O)[C@@H](NC(=O)c2ccccc2OCCCCOc2ccc(N3C(=S)N(c4ccc(C#N)c(C(F)(F)F)c4)C(=O)C3(C)C)cc2)C(C)(C)C)cc1 [Example 276],> 501,,< 25
Cc1ncsc1-c1ccc(CNC(=O)[C@@H]2C[C@H](O)CN2C(=O)[C@H](C(C)C)N2Cc3ccccc3C2=O)c(OCCOCCOCCOc2ccc(N3C(=S)N(c4ccc(C#N)c(C(F)(F)F)c4)C(=O)C3(C)C)cc2)c1 [Example 229],51 to 500,,51 to 70
"Cc1ncsc1-c1ccc(CNC(=O)[C@@H]2C[C@@H](O)CN2C(=O)[C@H](C(C)C)N2Cc3ccccc3C2=O)c(OCCOCCOCCOc2ccc(N3C(=S)N(c4ccc(C#N)c(C(F)(F)F)c4)C(=O)C3(C)C)cc2)c1 [Example 82, (2S,4R)—N-(2-(2-(2-(2-(4-(3-(4-cyano-3-(trifluoromethyl)phenyl)-5,5-dimethyl-4-oxo-2-thioxoimidazolidin-1-yl)phenoxy)ethoxy)ethoxy)ethoxy)-4-(4-methylthiazol-5-yl)benzyl)-4-hydroxy-1-((S)-3-methyl-2-(1-oxoisoindolin-2-yl)butanoyl)pyrrolidine-2-carboxamide]",51 to 500,51 to 70,
Cc1ncsc1-c1ccc(CNC(=O)[C@@H]2C[C@@H](O)CN2C(=O)[C@@H](NC(=O)c2ccc(OCCCCOc3ccc(N4C(=S)N(c5ccc(C#N)c(C(F)(F)F)c5)C(=O)C4(C)C)cc3)cc2)C(C)(C)C)cc1 [Example 257],51 to 500,,26 to 50
Cc1ncsc1-c1ccc(CNC(=O)[C@@H]2C[C@@H](O)CN2C(=O)[C@@H](NC(=O)c2ccccc2OCCOCCOc2ccc(N3C(=S)N(c4ccc(C#N)c(C(F)(F)F)c4)C(=O)C3(C)C)cc2)C(C)(C)C)cc1 [Example 282],51 to 500,,51 to 70
Cc1ncsc1-c1ccc(CNC(=O)[C@@H]2C[C@@H](O)CN2C(=O)[C@@H](NC(=O)COCCOCCOCCCCCOCCOCCOc2ccc(N3C(=S)N(c4ccc(C#N)c(C(F)(F)F)c4)C(=O)C3(C)C)cc2)C(C)(C)C)cc1 [Example 222],,,26 to 50
Cc1ncsc1-c1ccc(CNC(=O)[C@@H]2C[C@@H](O)CN2C(=O)[C@H](C(C)C)N2Cc3ccccc3C2=O)c(OCCOCCOCCOCCOc2ccc(N3C(=S)N(c4ccc(C#N)c(C(F)(F)F)c4)C(=O)C3(C)C)cc2)c1 [Example 210],> 501,,26 to 50
Cc1ncsc1-c1ccc(CNC(=O)[C@@H]2C[C@@H](O)CN2C(=O)[C@@H](NC(=O)CCCCOc2ccc(CCCOc3ccc(N4C(=S)N(c5ccc(C#N)c(C(F)(F)F)c5)C(=O)C4(C)C)cc3)cc2)C(C)(C)C)cc1 [Example 259],51 to 500,,> 71
Cc1ncsc1-c1ccc(CNC(=O)[C@@H]2C[C@@H](O)CN2C(=O)[C@@H](NC(=O)c2ccccc2OCCCOc2ccc(N3C(=S)N(c4ccc(C#N)c(C(F)(F)F)c4)C(=O)C3(C)C)cc2)C(C)(C)C)cc1 [Example 275],> 501,,< 25
Cc1ncsc1-c1ccc(CNC(=O)[C@@H]2C[C@@H](O)CN2C(=O)[C@@H](NC(=O)CC(=O)CCCOCCCCCOc2ccc(N3C(=S)N(c4ccc(C#N)c(C(F)(F)F)c4)C(=O)C3(C)C)cc2)C(C)(C)C)cc1 [Example 305],51 to 500,,51 to 70
Cc1ncsc1-c1ccc(CNC(=O)[C@@H]2C[C@@H](O)CN2C(=O)[C@H](C(C)C)N2Cc3ccccc3C2=O)c(OCCCCOc2ccc(N3C(=S)N(c4ccc(C#N)c(C(F)(F)F)c4)C(=O)C3(C)C)cc2)c1 [Example 256],51 to 500,,51 to 70
"Cc1ncsc1-c1ccc(CNC(=O)[C@@H]2C[C@@H](O)CN2C(=O)[C@H](C(C)C)N2Cc3ccccc3C2=O)c(OCCO[C@H](C)[C@@H](C)OCCOc2ccc(N3C(=S)N(c4ccc(C#N)c(C(F)(F)F)c4)C(=O)C3(C)C)cc2)c1 [Example 85, (2S,4R)-N-{[2-(2-{[(2R,3R)-3-[2-(4-{3-[4-cyano-3-(trifluoromethyl)phenyl]-5,5-dimethyl-4-oxo-2-sulfanylideneimidazolidin-1-yl}phenoxy)ethoxy]butan-2-yl]oxy}ethoxy)-4-(4-methyl-1,3-thiazol-5-yl)phenyl]methyl}-4-hydroxy-1-[(2S)-3-methyl-2-(1-oxo-2,3-dihydro-1H-isoindol-2-yl)butanoyl]pyrrolidine-2-carboxamide]",> 501,51 to 70,
Cc1ncsc1-c1ccc(CNC(=O)[C@@H]2C[C@@H](O)CN2C(=O)[C@@H](NC(=O)c2ccc(OCCCCCOc3ccc(N4C(=S)N(c5ccc(C#N)c(C(F)(F)F)c5)C(=O)C4(C)C)cc3)cc2)C(C)(C)C)cc1 [Example 258],51 to 500,,26 to 50
Cc1ncsc1-c1ccc(CNC(=O)[C@@H]2C[C@@H](O)CN2C(=O)[C@H](C(C)C)N2Cc3ccccc3C2=O)c(OCCOc2ccc(N3C(=S)N(c4ccc(C#N)c(C(F)(F)F)c4)C(=O)C3(C)C)cc2)c1 [Example 261],51 to 500,,< 25
Cc1ncsc1-c1ccc(CNC(=O)[C@@H]2C[C@@H](O)CN2C(=O)[C@@H](NC(=O)COCCOCCOCCCCCOc2ccc(N3C(=S)N(c4ccc(C#N)c(C(F)(F)F)c4)C(=O)C3(C)C)cc2)C(C)(C)C)cc1 [Example 225],< 50,,51 to 70
Cc1ncsc1-c1ccc(CNC(=O)[C@@H]2C[C@@H](O)CN2C(=O)[C@@H](NC(=O)COCCCOCCOCCOc2ccc(N3C(=S)N(c4ccc(C#N)c(C(F)(F)F)c4)C(=O)C3(C)C)cc2)C(C)(C)C)cc1 [Example 253],51 to 500,,51 to 70
Cc1ncsc1-c1ccc(CNC(=O)[C@@H]2C[C@@H](O)CN2C(=O)[C@@H](NC(=O)OCCOCCCOCCOc2ccc(N3C(=S)N(c4ccc(C#N)c(C(F)(F)F)c4)C(=O)C3(C)C)cc2)C(C)(C)C)cc1 [Example 239],< 50,,51 to 70
CC[C@H](NC(C)=O)C(=O)N1C[C@H](O)C[C@H]1C(=O)NCc1ccc(-c2scnc2C)cc1OCCOCCOCCOc1ccc(N2C(=S)N(c3ccc(C#N)c(C(F)(F)F)c3)C(=O)C2(C)C)cc1 [Example 280],> 501,,26 to 50
